Measurements reported in article PMC12111564, “Extended Family of Thiophosphoryl-Appended Pd(II) Pincer Complexes with a Deprotonated Amide Core: Synthesis and Biological Evaluation” (International Journal of Molecular Sciences, 2025).
Where two headings read alike, the source gives them in different places.

Columns and labels:
[1] = system: human colorectal carcinoma (HCT116); experiment: MTT cytotoxicity assay, HCT116; format: cell-based; conditions: 48 h exposure, read-out: IC50 ± SD, HCT116
Method: (§1) The cytotoxic activity of the complexes obtained was screened against several human solid and hematopoietic cancer cell lines using the conventional MTT assay. To evaluate their selectivity for cancerous over non-cancerous cells, analogous tests were performed with pseudonormal human embryonic kidney (HEK293) and breast epithelial (HBL100) cell lines.
(§2) The cytotoxicity of the compounds obtained was investigated on human colorectal carcinoma (HCT116), breast cancer (MCF7), prostate adenocarcinoma (PC3), glioblastoma (U251), ovarian adenocarcinoma (Scov3), chronic myelogenous leukemia (K562 and K562/iS9), multiple plasmacytoma (AMO1), and acute lymphoblastic leukemia (H9) cell lines, as well as human embryonic kidney (HEK293) and mammary epithelial (HBL100 and HBL100/Dox) cells used as non-cancerous cell lineages. All the cell lines were obtained from American Type Culture Collection (ATCC). The tested compounds were initially dissolved in DMSO. Cisplatin was obtained from a commercial source (as an infusion concentrate in natural saline solution). The experiments were performed using the conventional MTT assay (ICN Biomedicals, Eschwege, Germany) according to the previously published procedure.

breast cancer (MCF7) [2] = experiment: MTT cytotoxicity assay, MCF7; format: cell-based, human; conditions: 48 h exposure, read-out: IC50 ± SD, MCF7
Method: as §1, §2

[3] = system: prostate adenocarcinoma (PC3); experiment: MTT cytotoxicity assay, PC3; format: cell-based, human; conditions: 48 h exposure, read-out: IC50 ± SD, PC3
Method: as §1, §2

[4] = system: human embryonic kidney (HEK293); experiment: MTT cytotoxicity assay, HEK293; format: cell-based; conditions: 48 h exposure, non-cancerous cells, read-out: IC50 ± SD, HEK293
Method: as §1, §2

[5] = system: mammary epithelial cells HBL100; experiment: MTT cytotoxicity assay, HBL100; format: cell-based, human; conditions: 48 h exposure, non-cancerous cells, read-out: IC50 ± SD, HBL100
Method: as §1, §2

[6] = system: doxorubicin-resistant mammary epithelial cells HBL100/Dox; experiment: MTT cytotoxicity assay, HBL100/Dox; format: cell-based, human; conditions: 48 h exposure, doxorubicin-resistant clone, read-out: IC50 ± SD, HBL100/Dox
Method: as §1, §2

[7] = system: chronic myelogenous leukemia (K562); experiment: MTT cytotoxicity assay, K562; format: cell-based, human; conditions: 48 h exposure, read-out: IC50 ± SD, K562
Method: as §1, §2

[8] = system: doxorubicin-resistant subline of chronic myelogenous leukemia cells (K562/iS9); experiment: MTT cytotoxicity assay, K562/iS9; format: cell-based, human; conditions: 48 h exposure, read-out: IC50 ± SD, K562/iS9
Method: as §1, §2

[9] = system: multiple plasmacytoma (AMO1); experiment: MTT cytotoxicity assay, AMO1; format: cell-based, human; conditions: 48 h exposure, read-out: IC50 ± SD, AMO1
Method: as §1, §2

[10] = system: acute lymphoblastic leukemia (H9); experiment: MTT cytotoxicity assay, H9; format: cell-based, human; conditions: 48 h exposure, read-out: IC50 ± SD, H9
Method: as §1
as §2, with “Cisplatin was obtained from a commercial source (as an infusion concentrate in natural saline solution).” left out

K562 cells = experiment: Apoptosis induction, Annexin V-FITC/PI flow cytometry, K562; format: cell-based, human; conditions: 10 μM, 20 h
Source text: (§3) To our delight, in general the biological profile of complex (R)-18 appeared to be close to that of the previously reported phenyl-substituted counterpart (compare entries 10 and 1 in Table 1 and entries 6 and 1 in Table 2), with a lower activity on HCT116 and PC3 cells but remarkably higher selectivity towards K562 cells over non-cancerous HEK293 cells. […] The total percentage of early (lower right quadrant) and late (upper right quadrant) apoptotic cells for (R)-18 on K562/iS9 subline was even higher than in the parental cells. These findings prompted us to gain further insight into the bioactivity of the Pd(II) pincer complexes of thiophosphoryl-functionalized amides from the viewpoint of their potential to overcome drug resistance.
(§4) The apoptosis-inducing ability of enantiomerically pure and racemic complexes 18 was studied on K562 and K562/iS9 cells that were cultured in a medium containing 10 μM of the tested palladocycle for 20 h. The experiments were performed following the published procedure. The analysis was carried out on a FACScan flow cytometer (Becton Dickinson, Franklin Lakes, NJ, USA) using the CellQuest software (version 3.3).

K562/iS9 cells = experiment: Apoptosis induction, Annexin V-FITC/PI flow cytometry, K562/iS9; format: cell-based, human; conditions: 10 μM, 20 h
Source text: as §3, §4

[11] = system: Bacillus subtillis (VKM B-501); experiment: Agar well diffusion, B. subtillis; format: cell-based; conditions: 10 µL per well, 28 °C, 24 h
Method: (§5) The microbial strains Bacillus subtillis (VKM B-501), Micrococcus luteus (VKM Ac-2230), and Groenewaldozyma auringiensis (VKM Y-2927) were used for antimicrobial activity tests. All strains were obtained from the All-Russian Collection of Microorganisms (VKM) at the Skryabin Institute of Biochemistry and Physiology of Microorganisms, Pushchino Scientific Center of Biological Research. B. subtilis and M. luteus were grown on the following medium (g/L): aminopeptide 60 mL; tryptone 5.0 g; yeast extract 1.0 g; soybean extract 30 mL; bacto-agar 15.0 g; final pH 7.2. G. auringiensis was grown on malt extract medium containing the following medium (g/L): malt extract 12.75; dextrin 2.75; glycerol 2.35; gelatin peptone 0.78; bacto-agar 15; final pH 5.4. The antimicrobial activity of ligand 17 and its cyclopalladated derivative 18 (both in the racemic form) was studied by the agar well diffusion method. The overnight grown culture of each strain (100 µL) was applied to the surface of the solid medium, then spread on agar plates using a glass spreader, and left for 30 min. The wells were cut in the culture plates using a sterilized glass tube (4 mm in diameter), and each compound sample was dissolved in DMSO to a final concentration of 0.25 or 2.5 mM (10 µL) and was placed in each well. After this, the plates were kept at room temperature for 3 h to improve the diffusion of the compounds and incubated at 28 °C for 24 h. DMSO (15%) was used as a negative control, while kanamycin (50 mg/mL) was used as a positive control. The antimicrobial activity was determined by measuring the inhibition zone around each well as a mean of three replicates.

[12] = system: Micrococcus luteus (VKM Ac-2230); experiment: Agar well diffusion, M. luteus; format: cell-based; conditions: 10 µL per well, 28 °C, 24 h
Method: as §5

[13] = system: Groenewaldozyma auringiensis (VKM Y-2927); experiment: Agar well diffusion, G. auringiensis; format: cell-based; conditions: 10 µL per well, 28 °C, 24 h
Method: as §5

glioblastoma (U251) = experiment: MTT cytotoxicity assay, U251; format: cell-based, human
Method: as §1, §2

[14] = system: ovarian adenocarcinoma (Scov3); experiment: MTT cytotoxicity assay, Scov3; format: cell-based, human
Method: as §1, §2

[15] = system: human colorectal carcinoma (HCT116); parameters: method as in PMID 37818804; conditions: MTT; read-out: IC50 ± SD, HCT116; cited from earlier work
breast cancer (MCF7) [16] = system: breast cancer (MCF7); parameters: method as in PMID 37818804; conditions: MTT; read-out: IC50 ± SD, MCF7; cited from earlier work
[17] = system: prostate adenocarcinoma (PC3); parameters: method as in PMID 37818804; conditions: MTT; read-out: IC50 ± SD, PC3; cited from earlier work
[18] = system: human embryonic kidney (HEK293); parameters: method as in PMID 37818804; conditions: MTT; read-out: IC50 ± SD, HEK293; cited from earlier work
[19] = system: mammary epithelial cells HBL100; parameters: method as in PMID 37818804; conditions: MTT; read-out: IC50 ± SD, HBL100; cited from earlier work
[20] = system: doxorubicin-resistant mammary epithelial cells HBL100/Dox; conditions: MTT; read-out: IC50 ± SD, HBL100/Dox; cited from earlier work
[21] = system: chronic myelogenous leukemia (K562); parameters: method as in PMID 37818804; conditions: MTT; read-out: IC50 ± SD, K562; cited from earlier work
[22] = system: doxorubicin-resistant subline of chronic myelogenous leukemia cells (K562/iS9); conditions: MTT; read-out: IC50 ± SD, K562/iS9; cited from earlier work
[23] = system: multiple plasmacytoma (AMO1); parameters: method as in PMID 37818804; conditions: MTT; read-out: IC50 ± SD, AMO1; cited from earlier work
[24] = system: acute lymphoblastic leukemia (H9); parameters: method as in PMID 37818804; conditions: MTT; read-out: IC50 ± SD, H9; cited from earlier work
solid cancer cells = experiment: MTT cytotoxicity assay, solid cancer cells; format: cell-based, human; conditions: inactive at concentrations up to
Method: as §1, §2

[25] = system: hematopoietic cancer cells; experiment: MTT cytotoxicity assay, hematopoietic cancer cells; format: cell-based, human; conditions: inactive at concentrations up to
Method: as §1, §2

P-glycoprotein (P-gp) = target: T1, P-glycoprotein (P-gp) (Homo sapiens, UniProt P08183); experiment: P-gp functional activity, Rh123 efflux from K562/iS9 cells; format: cell-based; conditions: 20 μM of complex, 37 °C, 30 min, flow cytometry
T1 construct: We assessed the efflux of the fluorescent dye Rhodamine 123 (Rh123) from cells with a high P-gp content—K562/iS9 cells; endogenous in cells; host or cells: K562/iS9 (doxorubicin-resistant subline of K562)
T1 sequence (P08183 whole entry): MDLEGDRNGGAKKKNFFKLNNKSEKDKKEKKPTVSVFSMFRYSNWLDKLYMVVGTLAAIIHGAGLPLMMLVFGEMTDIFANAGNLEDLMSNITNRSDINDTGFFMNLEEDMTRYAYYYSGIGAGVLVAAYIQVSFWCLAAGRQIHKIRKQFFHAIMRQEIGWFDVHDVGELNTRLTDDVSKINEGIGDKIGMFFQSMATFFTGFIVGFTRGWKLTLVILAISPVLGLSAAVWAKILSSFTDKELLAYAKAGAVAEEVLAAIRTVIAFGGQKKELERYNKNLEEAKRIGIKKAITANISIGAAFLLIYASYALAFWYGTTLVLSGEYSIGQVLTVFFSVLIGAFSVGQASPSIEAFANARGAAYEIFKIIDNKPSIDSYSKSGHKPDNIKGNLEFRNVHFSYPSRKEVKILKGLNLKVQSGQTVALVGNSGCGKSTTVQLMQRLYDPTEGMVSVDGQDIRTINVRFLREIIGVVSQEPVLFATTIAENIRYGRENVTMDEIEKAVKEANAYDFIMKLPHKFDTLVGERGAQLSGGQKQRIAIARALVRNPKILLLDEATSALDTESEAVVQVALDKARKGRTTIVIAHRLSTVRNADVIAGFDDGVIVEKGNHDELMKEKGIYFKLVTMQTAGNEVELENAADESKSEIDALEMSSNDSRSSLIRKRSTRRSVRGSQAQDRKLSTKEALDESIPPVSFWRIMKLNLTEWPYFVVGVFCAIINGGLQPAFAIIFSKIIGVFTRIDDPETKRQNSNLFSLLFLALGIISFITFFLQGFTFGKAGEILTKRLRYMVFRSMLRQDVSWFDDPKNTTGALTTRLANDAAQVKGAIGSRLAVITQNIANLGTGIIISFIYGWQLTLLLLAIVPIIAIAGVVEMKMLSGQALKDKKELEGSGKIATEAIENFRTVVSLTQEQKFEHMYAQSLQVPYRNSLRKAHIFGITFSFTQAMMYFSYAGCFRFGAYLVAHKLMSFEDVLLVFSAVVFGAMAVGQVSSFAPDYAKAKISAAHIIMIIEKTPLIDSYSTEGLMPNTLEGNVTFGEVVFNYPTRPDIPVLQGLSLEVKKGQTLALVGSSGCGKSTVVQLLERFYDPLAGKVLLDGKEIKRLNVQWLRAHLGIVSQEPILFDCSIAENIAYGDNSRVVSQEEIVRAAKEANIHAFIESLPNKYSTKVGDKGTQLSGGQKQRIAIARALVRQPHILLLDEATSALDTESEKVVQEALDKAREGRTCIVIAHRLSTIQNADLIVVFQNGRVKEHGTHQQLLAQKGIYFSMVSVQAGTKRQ
Method: We assessed the efflux of the fluorescent dye Rhodamine 123 (Rh123) from cells with a high P-gp content—K562/iS9 cells [31].
The functional activity of P-gp was evaluated by the method described earlier [40]. K562/iS9 cells (3 × 10^6) were incubated for 15 min in a culture medium containing 5 μg/mL of Rh123 (Sigma-Aldrich, St. Louis, MO, USA). After incubation, the cells were washed twice and divided into several fractions. […] The incubation was carried out in the full culture medium at 37 °C for 30 min. […] The cell fluorescence was evaluated using a flow cytometer (Becton Dickinson). The results were analyzed using the CellQuest software.

For `CC(C)C1[N]2C(=O)c3cccc[n+]3[Pd-2]2([Cl])[S+]=P1(c1ccccc1)c1ccccc1` (racemic) [Compound 18], the IC50 [1] was 9.2 ± 1.8 µM, the IC50 (breast cancer (MCF7) [2]) was 19.2 ± 1.3 µM and the IC50 [3] was 11.5 ± 1.5 µM. The IC50 [4] was 9.5 ± 1.8 µM, the IC50 [5] was 14 ± 1.4 µM and the IC50 [6] was 23.3 ± 2.7 µM. It also gave an IC50 [7] of 4.8 ± 1.2 µM, an IC50 [8] of 6.4 ± 1.7 µM and an IC50 [9] of 3 ± 1.2 µM. For the same molecule, the IC50 [10] was 3.4 ± 0.1 µM, the “percentage of necrotic cells (upper left), K562” value (K562 cells) was 0.2% and the “percentage of necrotic cells (upper left), K562/iS9” value (K562/iS9 cells) was 0.4%. The “Inhibition Zone, B. subtillis (VKM B-501)” value ([11]; 0.25 mM) was 0.5 ± 0.2 mm, the “Inhibition Zone, B. subtillis (VKM B-501)” value ([11]; 2.50 mM) was 0.5 ± 0.2 mm and the “Inhibition Zone, M. luteus (VKM Ac-2230)” value ([12]; 0.25 mM) was 0.5 ± 0.3 mm. For the same molecule, the “Inhibition Zone, M. luteus (VKM Ac-2230)” value ([12]; 2.50 mM) was 4.0 ± 0.5 mm, the “Inhibition Zone, G. auringiensis (VKM Y-2927)” value ([13]; 0.25 mM) was 0 mm and the “Inhibition Zone, G. auringiensis (VKM Y-2927)” value ([13]; 2.50 mM) was 0 mm.

For `O=C1c2cccc[n+]2[Pd-2]2([Cl])[S+]=P(c3ccccc3)(c3ccccc3)C(c3ccccc3)[N]12` (racemic) [Ia], the IC50 (glioblastoma (U251)) is given as 34 ± 4 µM, the IC50 [14] is given as 30 ± 2 µM and the IC50 [15] is given as 3 ± 0.5 µM. For the same molecule, the IC50 (breast cancer (MCF7) [16]) was 10 ± 2.5 µM, the IC50 [17] was 4 ± 0.4 µM and the IC50 [18] was 6.2 ± 0.5 µM. The IC50 [19] was 16 ± 0.5 µM, the IC50 [20] was 34 ± 4 µM and the IC50 [21] was 7.4 ± 0.4 µM. The IC50 [22] was 5.8 ± 1.2 µM, the IC50 [23] was 2.4 ± 0.3 µM and the IC50 [24] was 3.2 ± 0.4 µM.

For `N#Cc1ccccc1.N#Cc1ccccc1.[Cl][Pd][Cl]` [PdCl2(NCPh)2], the “concentration up to which inactive, solid cancer cells” value (solid cancer cells) was > 60 µM and the “concentration up to which inactive, hematopoietic cancer cells” value [25] was > 40 µM.

For `COc1cc2c(cc1OC)CN(CCc1ccc(NC(=O)c3cccc4c(=O)c5cccc(OC)c5[nH]c34)cc1)CC2` [elacridar], the “effect on Rh123 efflux / interaction with P-gp” value (P-glycoprotein (P-gp)) was “almost completely blocks the efflux of Rh123”.
